Data as given in patent US20120328569A1, “INHIBITORS OF HEPATITIS C VIRUS NS5B POLYMERASE” (priority 2010, published 2012).

tested on: HCV genotype 1b replicon; assay: HCV replicon assay, cell ELISA with antibody to replicon-encoded NS3/4A (genotype 1b replicon); type: cell-based, hepatitis C virus; settings: Hepatitis C virus, 96 h, read-out: Replicon 1b IC50 (nM), HCV genotype 1b replicon cells, 96 hours incubation, NS3/4A ELISA readout
Experimental: The HCV NS5B inhibitory activity of the present compounds may be tested using assays known in the art. The HCV NS5B polymerase inhibitors described herein have activities in a genotype 1b replicon assay as described in the Examples. The assay is performed by incubating a replicon harboring cell-line in the presence of inhibitor for a set period of time and measuring the effect of the inhibitor on HCV replicon replication either directly by quantifying replicon RNA level, or indirectly by measuring enzymatic activity of a co-encoded reporter enzyme such as luciferase or β-lactamase. By performing a series of such measurements at different inhibitor concentrations, the effective inhibitory concentration of the inhibitor (EC50 or EC90) is determined. See Jan M. Vrolijk et al., A replicons-based bioassay for the measurement of interferons in patients with chronic hepatitis C, 110 J. VIROLOGICAL METHODS 201 (2003). Such assays may also be run in an automated format for high through-put screening. See Paul Zuck et al., A cell-based β-lactamase reporter gene assay for the identification of inhibitors of hepatitis C virus replication, 334 ANALYTICAL BIOCHEMISTRY 344 (2004).
Measurement of inhibition by compounds was performed using the HCV replicon system. Several different replicons encoding different HCV genotypes or mutations were used. In addition, potency measurements were made using different formats of the replicon assay, including different ways of measurements and different plating formats. See Jan M. Vrolijk et al., A replicons-based bioassay for the measurement of interferons in patients with chronic hepatitis C, 110 J. VIROLOGICAL METHODS 201 (2003); Steven S. Carroll et al., Inhibition of Hepatitis C Virus RNA Replication by 2′-Modified Nucleoside Analogs, 278(14) J. BIOLOGICAL CHEMISTRY 11979 (2003). However, the underlying principles are common to all of these determinations, and are outlined below.
Stable neomycin phosphotransferase encoding replicons-harboring cell lines were used, so all cell lines were maintained under G418 selection prior to the assay. Potency was determined using a cell ELISA assay with an antibody to the replicons encoded NS3/4a protease. See Caterina Trozzi et al., In Vitro Selection and Characterization of Hepatitis C Virus Serine Protease Variants Resistant to an Active-Site Peptide Inhibitor, 77(6) J. Virol. 3669 (2003). To initiate an assay, replicon cells were plated in the presence of a dilution series of test compound in the absence of G418. Typically, the assays were performed in a 96-well plate formate for manual operation, or a 384-well plate format for automated assay. Replicon cells and compound were incubated for 96 hours. At the end of the assay, cells were washed free of media and compound, and the cells were then lysed. RNA was quantified indirectly through detection of replicon-encoded NS3/4A protein levels, through an ELISA-based assay with an antibody specific for NS3/4A. IC50 determinations were calculated as a percentage of a DMSO control by fitting the data to a four-parameter fit function and the data obtained is provided in the table below.

`CNC(=O)c1c(-c2ccc(F)cc2)oc2cc(N(C)S(C)(=O)=O)c(-c3cccc(-c4cc5cc(F)ccc5[nH]4)c3)cc12` [Compound 367] and `CNC(=O)c1c(-c2ccc(F)cc2)oc2cc(N(C)S(C)(=O)=O)c(-c3cccc(-c4cc5cccc(Cl)c5[nH]4)c3)cc12` [Compound 371] are within 1.5-fold of each other in IC50: 3.9 nM for the first, 5.8 nM for the second.

Compared with `CNC(=O)c1c(-c2ccc(F)cc2)oc2cc(N(C)S(C)(=O)=O)c(-c3cccc(-c4cc5ncccc5[nH]4)c3)cc12` [Compound 368], `CNC(=O)c1c(-c2ccc(F)cc2)oc2cc(N(C)S(C)(=O)=O)c(-c3cccc(-c4cc5cccnc5[nH]4)c3)cc12` [Compound 369] is 1.7-fold higher in IC50: 1.6 nM for the first, 2.7 nM for the second.

Going from `CNC(=O)c1c(-c2ccc(F)cc2)oc2cc(N(C)S(C)(=O)=O)c(-c3cccc(-c4[nH]c5ccccc5c4C)c3)cc12` [Compound 370] to `CNC(=O)c1c(-c2cccc(-c3cc4c(C(=O)NC)c(-c5ccc(F)cc5)oc4cc3N(C)S(C)(=O)=O)c2)[nH]c2ccccc12` [Compound 377], the IC50 falls from 8.8 nM to 1.2 nM (7.3-fold).

Going from `CNC(=O)c1c(-c2ccc(F)cc2)oc2cc(N(C)S(C)(=O)=O)c(-c3cc(F)cc(-c4cc5ccccc5[nH]4)c3)cc12` [Compound 372] to `CNC(=O)c1c(-c2ccc(F)cc2)oc2cc(N(C)S(C)(=O)=O)c(-c3cc(OC)cc(-c4cc5ccccc5[nH]4)c3)cc12` [Compound 375], the IC50 falls from 13 nM to 2.7 nM (4.8-fold).

First: CNC(=O)c1c(-c2ccc(F)cc2)oc2cc(N(C)S(C)(=O)=O)c(-c3ccc(OC)c(-c4cc5ccccc5[nH]4)c3)cc12 [Compound 373]
Second: CNC(=O)c1c(-c2ccc(F)cc2)oc2cc(N(C)S(C)(=O)=O)c(-c3ccc(OC)c(-c4cc5cccc(F)c5[nH]4)c3)cc12 [Compound 374]
The IC50 of the first is 13-fold lower: 3.9 nM for the first, 52.4 nM for the second. The first is the more potent here.

Going from `CNC(=O)c1c(-c2ccc(F)cc2)oc2cc(N(C)S(C)(=O)=O)c(-c3cc(OC)cc(-c4cc5cccnc5[nH]4)c3)cc12` [Compound 378] to `CNC(=O)c1c(-c2ccc(F)cc2)oc2cc(N(C)S(C)(=O)=O)c(-c3ccc(F)c(-c4cc5cccnc5[nH]4)c3)cc12` [Compound 380], the IC50 falls from 1.8 nM to 1.2 nM (1.5-fold). The second is the more potent here.

Going from `CNC(=O)c1c(-c2ccc(F)cc2)oc2cc(N(CCO)S(C)(=O)=O)c(-c3cc(F)cc(-c4nc5ncccc5o4)c3)cc12` [Compound 386] to `CNC(=O)c1c(-c2ccc(F)cc2)oc2cc(N(CCO)S(C)(=O)=O)c(-c3ccc(OC)c(-c4nc5ncccc5o4)c3)cc12` [Compound 387], the IC50 rises from 1.3 nM to 2.3 nM (1.8-fold). The first is the more potent here.

Going from `CNC(=O)c1c(-c2ccc(F)cc2)oc2cc(N(CCCCO)S(C)(=O)=O)c(-c3cccc(-c4nc5ncccc5o4)c3)cc12` [Compound 391] to `CNC(=O)c1c(-c2ccc(F)cc2)oc2cc(N(CCCCC#N)S(C)(=O)=O)c(-c3cccc(-c4nc5ncccc5o4)c3)cc12` [Compound 394], the IC50 falls from 2.4 nM to 1.4 nM (1.7-fold). The second is the more potent here.

First: CNC(=O)c1c(-c2ccc(F)cc2)oc2cc(N(CCCC#N)S(C)(=O)=O)c(-c3cccc(-c4nc5ncccc5o4)c3)cc12 [Compound 393]
Second: CNC(=O)c1c(-c2ccc(F)cc2)oc2cc(N(CCCN)S(C)(=O)=O)c(-c3cccc(-c4nc5ncccc5o4)c3)cc12 [Compound 396]
The IC50 of the first is 15-fold lower: 1.2 nM for the first, 18.2 nM for the second.

First: CNC(=O)c1c(-c2ccc(F)cc2)oc2cc(N(CCCNC(=O)OC(C)(C)C)S(C)(=O)=O)c(-c3cccc(-c4nc5ncccc5o4)c3)cc12 [Compound 395]
Second: CNC(=O)c1c(-c2ccc(F)cc2)oc2cc(N(CCCN(C)C)S(C)(=O)=O)c(-c3cccc(-c4nc5ncccc5o4)c3)cc12 [Compound 399]
The IC50 of the first is 2.9-fold higher: 8.2 nM for the first, 2.8 nM for the second. The second is the more potent here.

`CNC(=O)c1c(-c2ccc(F)cc2)oc2cc(N(CCN(C)C)S(C)(=O)=O)c(-c3cccc(-c4nc5ncccc5o4)c3)cc12` [Compound 398] and `CCS(=O)(=O)N(C)c1cc2oc(-c3ccc(F)cc3)c(C(=O)NC)c2cc1-c1cccc(-c2nc3ncccc3o2)c1` [Compound 401] are within 1.5-fold of each other in IC50: 2.4 nM for the first, 1.8 nM for the second.

`CNC(=O)c1c(-c2ccc(F)cc2)oc2cc(N(C)S(C)(=O)=O)c(-c3ccccc3)cc12` [Example 1, 2-(4-fluorophenyl)-N-methyl-6-[methyl(methylsulfonyl)amino]-5-phenyl-1-benzofuran-3-carboxamide] gave an IC50 of 120 nM.
